For nine molecules, IC50 and Ki results are on record in ChEMBL document CHEMBL1909046, “DrugMatrix in vitro pharmacology data”.

For series [1], the target named is T1, Alpha-1D adrenergic receptor (Homo sapiens, UniProt P25100). Note: in other assays of this panel Not Active means under 50% inhibition at 10 µM.
T1 sequence (P25100 whole entry): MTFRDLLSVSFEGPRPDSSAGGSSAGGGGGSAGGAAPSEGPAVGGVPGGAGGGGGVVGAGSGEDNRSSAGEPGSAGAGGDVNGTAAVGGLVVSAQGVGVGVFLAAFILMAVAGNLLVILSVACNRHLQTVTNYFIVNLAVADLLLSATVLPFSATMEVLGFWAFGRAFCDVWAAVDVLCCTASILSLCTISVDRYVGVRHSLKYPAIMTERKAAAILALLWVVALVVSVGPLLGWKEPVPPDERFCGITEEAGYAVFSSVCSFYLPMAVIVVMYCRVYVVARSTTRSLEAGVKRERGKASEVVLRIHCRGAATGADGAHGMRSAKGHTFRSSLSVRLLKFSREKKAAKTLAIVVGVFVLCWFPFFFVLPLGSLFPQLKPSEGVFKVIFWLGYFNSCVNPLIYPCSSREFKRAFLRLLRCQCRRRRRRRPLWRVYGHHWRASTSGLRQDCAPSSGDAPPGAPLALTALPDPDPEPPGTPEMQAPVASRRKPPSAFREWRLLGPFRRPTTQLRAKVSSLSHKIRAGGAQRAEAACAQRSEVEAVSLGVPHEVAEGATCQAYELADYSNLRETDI
Type of series: cell membranes, HEK293, Membrane.

Series [2] has as its target T2, Type-2 angiotensin II receptor (Homo sapiens, UniProt P50052). Note: in other assays of this panel Not Active means under 50% inhibition at 10 µM.
T2 sequence (P50052 whole entry): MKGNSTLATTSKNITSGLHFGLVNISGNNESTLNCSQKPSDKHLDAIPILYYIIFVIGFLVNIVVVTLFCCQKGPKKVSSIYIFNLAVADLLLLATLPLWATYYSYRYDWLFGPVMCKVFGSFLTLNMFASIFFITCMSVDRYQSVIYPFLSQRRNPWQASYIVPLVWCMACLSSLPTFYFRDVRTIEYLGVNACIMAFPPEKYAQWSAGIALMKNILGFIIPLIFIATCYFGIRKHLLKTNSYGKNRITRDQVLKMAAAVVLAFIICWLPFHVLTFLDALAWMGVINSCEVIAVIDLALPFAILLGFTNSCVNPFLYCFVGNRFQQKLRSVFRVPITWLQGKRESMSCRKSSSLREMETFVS
Type of series: cell-based. As to conditions: cho-k1.

A short description of series [3]: DRUGMATRIX: Glutamate, NMDA, Agonism radioligand binding (ligand: [3H] CGP-39653). Format: cell membranes, Rattus norvegicus, Wistar, Cerebral cortex, Membrane. The settings on record: Not Active = under 50% inhibition at 10 µM.
Series [4] addresses T3, Nitric oxide synthase, inducible (Mus musculus, UniProt P29477).
T3 sequence (P29477 whole entry): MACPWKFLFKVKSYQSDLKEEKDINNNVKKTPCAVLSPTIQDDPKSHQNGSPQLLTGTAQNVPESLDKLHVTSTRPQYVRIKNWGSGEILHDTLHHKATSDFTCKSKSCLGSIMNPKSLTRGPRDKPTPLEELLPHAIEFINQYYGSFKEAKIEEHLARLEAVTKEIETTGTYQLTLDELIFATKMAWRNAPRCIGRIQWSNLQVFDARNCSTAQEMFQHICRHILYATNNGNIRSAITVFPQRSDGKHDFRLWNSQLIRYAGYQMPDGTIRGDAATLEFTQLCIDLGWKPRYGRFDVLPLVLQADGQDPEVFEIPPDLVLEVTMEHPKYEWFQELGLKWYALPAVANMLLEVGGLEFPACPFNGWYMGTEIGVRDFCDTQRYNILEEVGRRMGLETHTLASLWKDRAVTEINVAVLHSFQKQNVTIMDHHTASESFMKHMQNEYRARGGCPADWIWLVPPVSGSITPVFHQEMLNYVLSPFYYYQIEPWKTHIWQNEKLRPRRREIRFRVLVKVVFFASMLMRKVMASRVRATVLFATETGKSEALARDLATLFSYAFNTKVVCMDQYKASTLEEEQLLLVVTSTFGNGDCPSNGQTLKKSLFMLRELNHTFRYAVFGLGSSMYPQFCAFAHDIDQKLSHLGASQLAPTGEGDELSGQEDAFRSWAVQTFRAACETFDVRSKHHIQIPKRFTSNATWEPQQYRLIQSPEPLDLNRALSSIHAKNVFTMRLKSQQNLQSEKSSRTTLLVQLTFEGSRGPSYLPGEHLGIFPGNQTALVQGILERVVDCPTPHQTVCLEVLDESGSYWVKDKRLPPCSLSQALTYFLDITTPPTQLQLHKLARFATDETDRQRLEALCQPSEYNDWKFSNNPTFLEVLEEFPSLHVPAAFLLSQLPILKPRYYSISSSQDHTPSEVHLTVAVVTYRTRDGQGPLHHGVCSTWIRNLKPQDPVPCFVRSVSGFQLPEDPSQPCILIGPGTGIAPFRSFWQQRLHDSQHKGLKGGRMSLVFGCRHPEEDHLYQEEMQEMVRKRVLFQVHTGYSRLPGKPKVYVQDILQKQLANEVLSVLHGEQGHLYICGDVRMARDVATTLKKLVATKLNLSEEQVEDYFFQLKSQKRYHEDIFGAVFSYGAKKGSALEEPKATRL
Also on record: species or system Escherichia coli.

Series [5] has as its target Kappa-type opioid receptor (Homo sapiens, UniProt P41145). The series is described as follows: DRUGMATRIX: Opiate kappa (OP2, KOP) radioligand binding (ligand: [3H] Diprenorphine). The settings on record: hek293; Not Active = under 50% inhibition at 10 µM. Type of series: cell membranes, HEK293, Membrane.
Series [6] can be described thus: DRUGMATRIX: Phorbol Ester radioligand binding (ligand: [3H] PDBu). Format: cell membranes, Mus musculus, ICR, Brain, Membrane. As to conditions: Not Active = under 50% inhibition at 10 µM.
Series [7] in a line: DRUGMATRIX: Phosphodiesterase PDE3 enzyme inhibition (substrate: [3H]cAMP + cAMP). Format: tissue-based, Homo sapiens. The settings on record: platelet; Not Active = under 50% inhibition at 10 µM.
The target of another series is T4, Caspase-1 (Homo sapiens, UniProt P29466).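 Note: Caspase-1 enzyme inhibition assay with a peptide substrate; in other assays of this panel Not Active means under 50% inhibition at 10 µM.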
T4 sequence (P29466 whole entry): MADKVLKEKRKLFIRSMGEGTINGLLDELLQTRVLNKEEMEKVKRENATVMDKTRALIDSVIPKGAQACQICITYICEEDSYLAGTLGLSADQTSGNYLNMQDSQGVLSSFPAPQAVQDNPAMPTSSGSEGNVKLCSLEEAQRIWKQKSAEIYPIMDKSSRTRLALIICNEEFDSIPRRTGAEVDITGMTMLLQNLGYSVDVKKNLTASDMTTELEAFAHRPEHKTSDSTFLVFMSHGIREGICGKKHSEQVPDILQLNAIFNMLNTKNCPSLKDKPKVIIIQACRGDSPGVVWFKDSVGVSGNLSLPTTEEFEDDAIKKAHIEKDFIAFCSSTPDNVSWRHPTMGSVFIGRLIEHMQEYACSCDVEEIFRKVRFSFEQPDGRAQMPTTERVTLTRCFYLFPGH
Also noted: species or system Escherichia coli.

Another series concerns the target Cytochrome P450 2C9 (Homo sapiens, UniProt P11712). The settings on record: bti-tn-5b1-4. Note: in other assays of this panel Not Active means under 50% inhibition at 10 µM.

Chain of Kappa-type opioid receptor (P41145 whole entry): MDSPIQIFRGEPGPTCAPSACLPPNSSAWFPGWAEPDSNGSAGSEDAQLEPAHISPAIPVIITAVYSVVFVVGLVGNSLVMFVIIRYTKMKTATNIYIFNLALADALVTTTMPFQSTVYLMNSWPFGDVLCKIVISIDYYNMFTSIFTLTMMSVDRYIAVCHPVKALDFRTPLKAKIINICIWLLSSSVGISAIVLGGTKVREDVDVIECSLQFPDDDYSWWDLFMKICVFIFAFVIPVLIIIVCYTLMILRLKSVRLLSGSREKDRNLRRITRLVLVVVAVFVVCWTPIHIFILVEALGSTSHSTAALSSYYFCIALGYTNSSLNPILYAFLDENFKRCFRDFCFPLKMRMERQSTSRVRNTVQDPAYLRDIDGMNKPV
Chain of Cytochrome P450 2C9 (P11712 whole entry): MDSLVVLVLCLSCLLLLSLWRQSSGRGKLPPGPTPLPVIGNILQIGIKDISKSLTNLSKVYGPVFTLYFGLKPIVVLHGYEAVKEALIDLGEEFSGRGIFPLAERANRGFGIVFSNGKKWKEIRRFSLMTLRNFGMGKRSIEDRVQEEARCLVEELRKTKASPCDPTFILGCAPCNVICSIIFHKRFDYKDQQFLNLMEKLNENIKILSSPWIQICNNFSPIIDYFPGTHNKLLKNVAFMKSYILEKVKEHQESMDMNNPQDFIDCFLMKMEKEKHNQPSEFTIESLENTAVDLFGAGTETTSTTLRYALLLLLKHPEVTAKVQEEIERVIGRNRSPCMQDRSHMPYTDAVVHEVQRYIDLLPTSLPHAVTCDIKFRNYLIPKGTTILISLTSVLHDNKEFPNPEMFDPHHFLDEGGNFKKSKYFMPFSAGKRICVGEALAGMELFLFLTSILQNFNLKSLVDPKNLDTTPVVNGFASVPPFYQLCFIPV

With `CCCC1O[C@@H]2C[C@H]3[C@@H]4CCC5=CC(=O)C=C[C@]5(C)[C@H]4[C@@H](O)C[C@]3(C)[C@]2(C(=O)CO)O1` (stereo partly drawn) [BUDESONIDE], the IC50 entry in [1] (hek293), in series [2], in series [3], in series [4], in series [5] and in series [6] was “Not Active” in each case. The IC50 result (in series [7]; at Caspase-1; on Cytochrome P450 2C9) was “Not Active” throughout. Further, the Ki result (in [3]; in [6]; in series [7]; on Cytochrome P450 2C9) was “Not Active” in each case.

As for `COCCc1ccc(OCC(O)CNC(C)C)cc1` (stereo not drawn) [METOPROLOL], the IC50 entry in series [1] (hek293), in series [2], in series [3], in [4], in series [5] and in [6] was “Not Active” in each case. In addition, the IC50 entry (in series [7]; against Caspase-1; on Cytochrome P450 2C9) was “Not Active” throughout. The Ki result (in series [3]; in series [6]; in [7]; at Cytochrome P450 2C9) was “Not Active” throughout.

Take `CC1CC(OC(=O)C(O)c2ccccc2)CC(C)(C)C1` (stereo not drawn) [CYCLANDELATE]: the IC50 result in series [1] (hek293), in series [2], in series [3], in series [4], in series [5] and in series [6] was “Not Active” in each case. Also, the IC50 entry (in series [7]; against Caspase-1; against Cytochrome P450 2C9) was “Not Active” in each case. Also, the Ki entry (in [3]; in [6]; in [7]; at Cytochrome P450 2C9) was “Not Active” throughout.

Take `C1CCC(C(CC2CCCCN2)C2CCCCC2)CC1` (stereo not drawn) [PERHEXILINE]: the IC50 result in series [1] (hek293), in series [2], in [3], in series [4], in series [5] and in [6] was “Not Active” throughout. In addition, the IC50 entry (in [7]; at Caspase-1; against Cytochrome P450 2C9) was “Not Active” each time. For the same molecule, the Ki entry (in series [3]; in series [6]; in series [7]; at Cytochrome P450 2C9) was “Not Active” in each case.

Consider `CC(C)[C@H]1C(=O)N2CCC[C@H]2[C@]2(O)O[C@](NC(=O)[C@@H]3C=C4c5cccc6[nH]cc(c56)C[C@H]4N(C)C3)(C(C)C)C(=O)N12` [ERGOCORNINE], for which the IC50 – broadly, the concentration that inhibits the measured activity by half – is 18 nM in series [1] (read-out: IC50); “Not Active” in [2]; “Not Active” in [3]; “Not Active” in [4]; “Not Active” in series [5]; “Not Active” in [6]. Moreover, the 50% inhibitory concentration (IC50) entry (in series [7]; at Caspase-1; against Cytochrome P450 2C9) was “Not Active” in each case. Besides, the Ki (usually a dissociation constant, usually derived from enzyme kinetics or from competition with a known ligand) was 8.75 nM in series [1] (read-out: Ki); “Not Active” in series [3]; “Not Active” in series [6]; “Not Active” in [7]; “Not Active” at Cytochrome P450 2C9.

For the molecule `C[C@]12CCC(=O)C=C1CC[C@@H]1[C@@H]2CC[C@@]2(C)[C@H]1CC[C@]2(C)O` [METHYLTESTOSTERONE], the IC50 result in series [1] (hek293), in series [2], in series [3], in series [4], in series [5] and in [6] was “Not Active” each time. For the same molecule, the IC50 result (in [7]; at Caspase-1; on Cytochrome P450 2C9) was “Not Active” in each case. Moreover, the Ki entry (in series [3]; in series [6]; in [7]; at Cytochrome P450 2C9) was “Not Active” in each case.

In the case of `Nc1nc2c(ncn2COCCO)c(=O)[nH]1` [ACYCLOVIR], the IC50 entry in [1] (hek293), in series [2], in series [3], in series [4], in series [5] and in [6] was “Not Active” throughout. Besides, the IC50 result (in [7]; against Caspase-1; against Cytochrome P450 2C9) was “Not Active” throughout. Also, the Ki result (in series [3]; in series [6]; in series [7]; at Cytochrome P450 2C9) was “Not Active” throughout.

Turning to `CC(C)CN(C[C@@H](O)[C@H](Cc1ccccc1)NC(=O)O[C@H]1CCOC1)S(=O)(=O)c1ccc(N)cc1`, the IC50 entry in series [1] (hek293), in [2], in series [3], in series [4], in series [5] and in [6] was “Not Active” each time. The concentration for half-maximal inhibition (IC50) result (in series [7]; against Caspase-1; against Cytochrome P450 2C9) was “Not Active” each time. Also, the Ki result (in series [3]; in [6]; in series [7]; at Cytochrome P450 2C9) was “Not Active” each time.

Take `Cc1c(C)c2c(c(C)c1O)CC[C@@](C)(CCC[C@H](C)CCC[C@H](C)CCCC(C)C)O2` [ALPHA-TOCOPHEROL]: the IC50 entry in [1] (hek293), in [2], in series [3], in series [4], in series [5] and in [6] was “Not Active” throughout. The IC50 result (in series [7]; against Caspase-1; at Cytochrome P450 2C9) was “Not Active” throughout. In addition, the Ki entry (in series [3]; in series [6]; in [7]; at Cytochrome P450 2C9) was “Not Active” throughout.
